Source: patent US11148998B2, “Dimethyl-nonatetraenyl-trimethyl-cyclohexyl compounds and uses thereof” (The Regents of the University of Michigan, priority 2017, dated 2021)

Tests used:
rhino mouse skin = assay: Rhino mouse topical treatment: skin histology (horn-filled utriculi, epidermal thickness, inflammation); format: in vivo; conditions: for Epidermal thickness / Utriculus number / skin structure in histology (dermal thickness, utriculi, necrosis, infiltration) / inflammatory response / inflammatory cell infiltrate in histological sections (in words) / Inflammatory index: 21 days; for Inflammatory index: scored 0 to 4+
Source text: FIGS. 12A-C: Efficacy of retinoids at normalizing structure of rhino mouse skin after topical treatment for 21 days.
FIGS. 13A-C: Dose related effect of Example 2 on rhino mouse skin.
The rhinomouse model is an industry-standard pre-clinical model for evaluation of retinoids for anti-acne activity. The mice can be treated topically over a course of days with the desired compound (either formulated or in liquid solvent). During the course of treatment, the animals can be evaluated grossly for skin irritation. At the end of the treatment phase, the animals are euthanized. Skin from treated sites can be evaluated for efficacy—reduction in the number of horn-filled utriculi—and for histological evidence of inflammation.
As a control, Tretinoin-0.1% was used. […] This is a commonly-prescribed anti-acne medicine.
One day after the last treatment, animals were euthanized. The animals were injected with 7 ml 10% buffered formalin after euthanasia. 15 minutes later the treated area on the back of the mouse was removed and cut into 8 pieces. Every other piece was taken, so four pieces of skin were mounted in one cassette and fixed for histology. An extra piece of skin from a non-treated area was also evaluated.
Hematoxylin and eosin stained sections were evaluated microscopically for epidermal thickness with measurements made in the inter-follicular regions at 4 representative sites per tissue strip.
The number of horn-filled utriculi was determined by direct counting in the entire section of skin. Each of the four sections per biopsy was used for determining the number of utriculi. Section lengths were measured as a way to normalize findings. Typically, the section of skin varied from 16-20 mm.
Slides were examined microscopically and inflammation was scored on a 0 to 4+ basis. A score of zero indicated no inflammation while increasing collection of inflammatory cells was identified with increasing score. Slides were also evaluated to determine if inflammation was confined to the dermis or whether there was epidermal inflammation. Dermal inflammation was assessed to determine if inflammatory cells were scattered throughout the dermis or whether small abscesses were also present. Finally, the inflammatory lesions were evaluated to determine whether they consisted of primarily mononuclear cells, granulocytic cells or both. A similar scale has been used previously in the assessment of skin irritation.
At the end of the in-life portion of the study, mice were euthanized by CO2 overdose. Hematoxylin and eosin-stained histological sections from each mouse in the control, ATRA-treated and Compound 2-treated groups were evaluated with regard to the number of horn-filled utriculi, epidermal thickness, and inflammation. Briefly, the epidermis of control mice consisted of a thin epidermis with large numbers of horn-filled utriculi (98+10 per 20 mm of epidermal linear length). […] Both the ATRA-treated mouse (top right panel) the Compound 2 treated skin (bottom panel) show both much thickened […] and disappearance of utriculi. […] There were large numbers of inflammatory cells in the dermis. Microabscesses could be seen in places, and migration of inflammatory cells into the epidermis was also evident. The infiltrate consisted of both mononuclear cells and granulocytes. […] The three other experimental retinoids were also examined along with Compound 2. […] In FIG. 13 it can be seen that during the dosing period 0.1% of Compound 2 led to skin thickening, but incomplete resolution of the utricali, whereas at 0.3% the utricali were more fully resolved.

human dermal fibroblasts [1] = assay: Retinoid-induced fibroblast survival under low-calcium conditions; format: cell-based; conditions: for protection of fibroblasts from lysis (percentage of initially present cells still viable): 0.1 to 5 μg/mL
Description: Human dermal fibroblasts are isolated from skin biopsies as described previously and grown in monolayer culture using DMEM supplemented with 10% fetal bovine serum as culture medium (see, e.g., Varani J, et al., J Clin Invest. 1994; 94; Varani J, et al., J. Invest. Dermatol. 94:717-723, 1990). Growth is at 37° C. in a humidified atmosphere containing 5% CO2 and 95% air. For experimental studies, cells are plated at 5×10^4 cells per well in wells of a 24-well culture dish in the same culture medium. One day later, cells are washed and the DMEM culture medium is replaced with Keratinocyte Basal Medium (KBM).
In this assay, low-passage human dermal fibroblasts are grown for three days in Keratinocyte Basal Medium (KBM) at a calcium concentration (0.1 mM) that is too low to support survival. […] How retinoids act to prevent fibroblast lysis is not fully understood, but part of the mechanism involves modulation of calcium transit across the cell membrane in the presence of the active retinoids (see, e.g., Varani J, et al., Am. J. Path. 136:1275-1281, 1990; Varani K, et al., Am J. Pathol. 147:718-729, 1995; Varani J, et al., Amer. J. Pathol. 148: 1307-1312, 1996).

human dermal fibroblasts [2] = assay: Generation of pro-inflammatory cytokines by fibroblasts (multiplex ELISA); format: cell-based; conditions: KBM 1.5 mM calcium, two days, culture fluids
Description: Fibroblasts were grown in KBM supplemented with 1.5 mM calcium (i.e., as in the fibroblast cytotoxicity assay) for two days. Culture fluids obtained at the end of the incubation period were assessed for several pro-inflammatory cytokines using a multiplex (ELISA-type) assay. Values shown are means and ranges based on duplicate samples in a single experiment. The experiment was repeated two times with similar results.
It is believed that the pro-inflammatory cytokines are “drivers” of the retinoid-induced skin irritation response. […] In this experiment, fibroblasts were cultured for two days in KBM supplemented with 1.5 mM calcium (i.e., as in the cytotoxicity assay). Culture fluids were collected after two days of incubation and subjected to a multiplex enzyme-linked immunosorbant assay (ELISA) for the following cytokines: TNF-α, IL-1β, IL-6, IL-8, MCP-1 and CXCL-1.

[3] = topical, concentration not given

Row | SMILES | Epidermal thickness (rhino mouse skin; 0.1% topical) | Utriculus number (rhino mouse skin; 0.1% topical) | skin structure in histology (dermal thickness, utriculi, necrosis, infiltration) (rhino mouse skin; 0.1% topical) | inflammatory response / inflammatory cell infiltrate in histological sections (in words) (rhino mouse skin; [3]) | fall-off in cell numbers (human dermal fibroblasts [1]; 5 μg/mL, low-calcium survival assay) | concentration at which protection was optimal (human dermal fibroblasts [1]; KBM 0.1 mM calcium, three days) [µg/mL] | protection of fibroblasts from lysis (percentage of initially present cells still viable) (human dermal fibroblasts [1]; KBM 0.1 mM calcium, three days) | induction of pro-inflammatory cytokines (TNF-α, IL-1β, IL-6, IL-8, MCP-1, CXCL-1) (human dermal fibroblasts [2]) | number of utriculi compared to control (in words) (rhino mouse skin; [3]) | protection of fibroblasts from lysis (percentage of initially present cells still viable) (human dermal fibroblasts [1]; KBM 0.1 mM calcium, three days, listed as Compound 1) | induction of pro-inflammatory cytokines (TNF-α, IL-1β, IL-6, IL-8, MCP-1, CXCL-1) (human dermal fibroblasts [2]; listed as Compound 1) | Inflammatory index (rhino mouse skin; 0.1% topical) | Epidermal thickness (rhino mouse skin; 0.3% topical) | Utriculus number (rhino mouse skin; 0.3% topical) | Inflammatory index (rhino mouse skin; 0.3% topical) | induction of pro-inflammatory cytokines (TNF-α, IL-1β, IL-6, IL-8, MCP-1, CXCL-1) (human dermal fibroblasts [2]; listed as Compound 2)
1 | CC1=C(/C=C/C(C)=C/C=C/C(C)=C/C(=O)O)C(C)(C)CCC1 [ATRA, all-trans retinoic acid, reference compound] | 68 ± 17 | 2 ± 2 per 20 mm of epidermal linear length | overall dermal layer is considerably thicker, and the utriculi have gone, the dermal layer has large necrotic areas, and is heavily infiltrated with activated leukocytes and macrophages | intense inflammatory cell infiltrate | incipient toxicity | 1.0 | capable of protecting fibroblasts from lysis under low-calcium conditions | induced a strong up-regulation of several cytokines |  |  |  |  |  |  |  | 
2 | CC1=C(/C=C/C(C)=C\C=C\C(C)=C\C(=O)N(C)CC(=O)C(C)(C)C)C(C)(C)CCC1 [Example 1, (2E,4E 6Z,8E)-N-(3,3-dimethyl-2-oxobutyl)-N,3,7-trimethyl-9-(2,6,6-trimethylcyclohex-1-en-1-yl)nona-2,4,6,8-tetraenamide] |  |  |  | did not produce an inflammatory response |  |  | capable of protecting fibroblasts from lysis under low-calcium conditions | no evidence of cytokine induction at the highest concentration | reduced the number of utriculi as compared to control | as effective as ATRA | not observed |  |  |  |  | 
3 | CC1=C(/C=C/C(C)=C\C=C\C(C)=C\C(=O)N(C)CC(=O)c2ccccc2)C(C)(C)CCC1 [Example 2, (2E,4E 6Z,8E)-N,3,7-trimethyl—N-(2-oxo-2-phenylethyl)-9-(2,6,6-trimethylcyclohex-1-en-1-yl)nona-2,4,6,8-tetraenamide] | 45 ± 8 | 7 ± 5 per 20 mm of epidermal linear length | normalization of dermal thickness, but still many structural remnants of utriculi | little inflammatory cell infiltrate |  |  | capable of protecting fibroblasts from lysis under low-calcium conditions | no evidence of cytokine induction at the highest concentration |  |  |  | 1.1 ± 0.6 | 44 ± 6 | 5 ± 3 per 20 mm of epidermal linear length | 0.9 ± 0.4 | not observed
